The results in this text go back to ChEMBL document CHEMBL1127102, “Structure-activity relationships of 2,3-benzodiazepine compounds with glutamate antagonistic action” (Bioorg Med Chem Lett, 1993).

For orientation: ED50 means the dose at which the effect has come halfway, by size or by number of responders. Low readings indicate an effect at a small dose, high ones a need for a large dose. As usually defined, the IC50 is the concentration needed to halve the response being measured. Read a low IC50 as inhibition by little substance.

For experiment [1], the species on record is Rattus norvegicus. Nature of the experiment: Tested in vitro for the relative potency against neuronal responses mediated by the non-NMDA type glutamate receptor compared to GYKI 52466. The experiment is classed as functional.
Experiment [2] has as its system Mus musculus. Nature of the experiment: Tested in vivo for anticonvulsant activity using MES, MMS and IS relative potency compared to GYKI 52466. The experiment is classed as functional.
The subject of experiment [3] is Mus musculus. Description: Tested in vivo for the oral anticonvulsant activity by MES test. The experiment is classed as functional.
For experiment [4], the species on record is Mus musculus. Nature of the experiment: Tested in vitro for the oral anticonvulsant activity by MES test. The experiment is classed as functional, organism-based.
The subject of experiment [5] is Mus musculus. Description: Tested in vivo for the anticonvulsant activity by MMS test. 95% confidence limits are in brackets. The experiment is classed as functional.
The subject of experiment [6] is Mus musculus. Nature of the experiment: Tested in vivo for the anticonvulsant activity by MES test. 95% confidence limits are in brackets. The experiment is classed as functional.
Experiment [7] is filed under the species Rattus norvegicus. Nature of the experiment: Tested in vitro for the anticonvulsant activity (IC50 value was determined after 30 min perfusion application by MES test). The experiment is classed as functional, organism-based. The settings on record: 0.5 h.
For experiment [8], the system named is Mus musculus. Nature of the experiment: Tested in vivo for the anticonvulsant activity by IS test. The experiment is classed as functional.

With `CC(N)C(=O)N1N=C(c2ccc(N)cc2)c2cc3c(cc2CC1C)OCO3` (centres undefined), the figures for the Relative potency in the experiment listed under Rattus norvegicus [1] and in the experiment on Mus musculus [2] were 0 and 0.08, respectively.

The compound `CC1Cc2cc3c(cc2C(c2ccc(N)cc2)=NN1C(=O)CC#N)OCO3` (centres undefined) displayed a Relative potency with Mus musculus [2] of 0.21.

Regarding `CCCCNC(=O)N1N=C(c2ccc(N)cc2)c2cc3c(cc2CC1C)OCO3` (centres undefined), the Relative potency turned out to be 0.65 in the experiment listed under Rattus norvegicus [1] and 0.35 in the experiment with Mus musculus [2].

Take `CC(=O)N1N=C(c2ccc(N)cc2)c2cc3c(cc2C[C@H]1C)OCO3` [TALAMPANEL]: the Relative potency in the experiment listed under Rattus norvegicus [1] was 1.12; in the experiment on Mus musculus [2], 2.74.

Take `CCCCC(=O)N1N=C(c2ccc(N)cc2)c2cc3c(cc2CC1C)OCO3` (centres undefined): the Relative potency in the experiment filed under Rattus norvegicus [1] is given as 0.22; with Mus musculus [2] it was 0.

In the case of `CNCC(=O)N1N=C(c2ccc(N)cc2)c2cc3c(cc2CC1C)OCO3` (centres undefined), the Relative potency in the experiment filed under Rattus norvegicus [1] stood at 0.02; in the experiment with Mus musculus [2], 0.

Regarding `CNC(=O)N1N=C(c2ccc(N)cc2)c2cc3c(cc2CC1C)OCO3` (centres undefined) [GYKI-53655], the Relative potency turned out to be 2.46 in the experiment listed under Rattus norvegicus [1] and 4.39 in the experiment with Mus musculus [2]. This compound also displayed an ED50 with Mus musculus [3] of 8.4 mg/kg. Also, the 50% inhibitory concentration (IC50) in the experiment listed under Mus musculus [4] worked out at 12 µM.

As for `CC1=NN=C(c2ccc(N)cc2)c2cc3c(cc2C1)OCO3` [GYKI-52466], the figures for the ED50 in the experiment with Mus musculus [5], with Mus musculus [6] and in the experiment with Mus musculus [8] were 107 mg/kg, 30.6 mg/kg and 45.1 mg/kg, respectively. In the experiment filed under Rattus norvegicus [7], 29.5 µM corresponded to half-maximal inhibition (IC50).

Turning to `CC1Cc2cc3c(cc2C(c2ccc(N)cc2)=NN1C(=O)CN)OCO3` (centres undefined), the figures for the Relative potency in the experiment listed under Rattus norvegicus [1] and with Mus musculus [2] were 0.1 and 0, respectively.

In the case of `COCC(=O)N1N=C(c2ccc(N)cc2)c2cc3c(cc2CC1C)OCO3` (centres undefined), the Relative potency in the experiment on Mus musculus [2] came to 1.02.

`CC1Cc2cc3c(cc2C(c2ccc(N)cc2)=NN1C(=O)C(F)(F)F)OCO3` (centres undefined) yielded a Relative potency in the experiment on Mus musculus [2] of 0.

In the experiment with Mus musculus [2], `CC1Cc2cc3c(cc2C(c2ccc(N)cc2)=NN1C(=O)Nc1ccccc1)OCO3` (centres undefined) had a Relative potency of 0.13.

With `CC1Cc2cc3c(cc2C(c2ccc(N)cc2)=NN1C(=O)C1CC1)OCO3` (centres undefined), the values for the Relative potency in the experiment filed under Rattus norvegicus [1] and in the experiment with Mus musculus [2] were 1.48 and 1.66, respectively.

`CC1Cc2cc3c(cc2C(c2ccc(N)cc2)=NN1C(=O)c1ccccc1)OCO3` (centres undefined) gave a Relative potency with Mus musculus [2] of 0.

`CC1Cc2cc3c(cc2C(c2ccc(N)cc2)=NN1C(=O)C(C)(C)C)OCO3` (centres undefined): the Relative potency in the experiment with Mus musculus [2] is given as 0.

Regarding `CCC(=O)N1N=C(c2ccc(N)cc2)c2cc3c(cc2CC1C)OCO3` (centres undefined), the Relative potency in the experiment listed under Rattus norvegicus [1] is given as 1.55; with Mus musculus [2], 2.55.

Take `CC1Cc2cc3c(cc2C(c2ccc(N)cc2)=NN1C=O)OCO3` (centres undefined): the values for the Relative potency in the experiment listed under Rattus norvegicus [1] and in the experiment with Mus musculus [2] were 0.44 and 1.72, respectively.

For the compound `CC1Cc2cc3c(cc2C(c2ccc(N)cc2)=NN1C(=O)CN(C)C)OCO3` (centres undefined), in the experiment with Mus musculus [2], the Relative potency turned out to be 0.

Consider `CC1Cc2cc3c(cc2C(c2ccc(N)cc2)=NN1C(=O)Cc1ccccc1)OCO3` (centres undefined), for which the Relative potency with Mus musculus [2] was 0.
